Legend:
[1] = system: HIV NL4-3 envelope; test: TOPO cell mediated fusion assay, NL4-3 envelope; assay type: cell-based; settings: envelope NL4-3; linear envelope expression element; Hela H1 effector and target cells, luciferase; read-out: BMS-806 EC50 TOPO Cell Fusion
Procedure: (§1) Preparation of Linear HIV Envelope Expression Element HIV viral RNA was isolated from 140 μl culture supernatant using a QIAamp Viral RNA Mini Kit (Qiagen Inc). The viral RNA was eluted in 60 μl of elution buffer. First strand cDNA was synthesized using the SuperScript First-Strand Synthesis system for RT-PCR (Invitrogen Corporation) using 8 μl of viral RNA and random hexamers according to the manufactures instructions. The HIV envelope gene was PCR amplified using 4 μl of first strand CDNA, primers BF17 5′-[sequence]-3′ and ENV-N 5′-[sequence]-3′ and a Platimun Taq DNA Polymerase High Fidelity Kit (Invitrogen) in a 100 μl reaction. The PCR product was purified using a QIAquick PCR Purification Kit (Qiagen Inc, Valencia, Calif.). In order to introduce the proper ends for the TOPO reaction 1 μl of the first PCR reaction was PCR amplified using primers:
(§2) in 100 μl as before. The PCR reaction was run on a 0.7% agarose gel and the about 3 kb HIV envelope gene was gel purified using a QIAquick Gel Extraction KIT (Qiagen Inc). The 5′ CMV promoter element and 3′ SV40 polyadenylation element were added to 700 ng of the HIV envelope PCR fragment using a TOPO Tools Kit (Invitrogen) and the final PCR product was purified as before. […]

[2] = system: HIV NL4-3 whole virus; test: Whole virus assay, NL4-3; assay type: cell-based; settings: read-out: BMS-806 EC50 Whole Virus
[3] = system: HIV LAI whole virus; test: Whole virus assay, LAI; assay type: cell-based; settings: read-out: BMS-806 EC50 Whole Virus
[4] = system: HIV envelope BRH04820; test: TOPO cell mediated fusion assay, clinical envelope BRH04820; assay type: cell-based; settings: clinical envelope BRH04820, source serum; read-out: BMS-806 EC50 TOPO Fusion
Procedure: (§3) The effector cells were prepared by transfecting 1.7×10^6 Hela H1 cells in a T75 flask with the linear viral envelope expression element and pTET-Off using a Lipofectamine Plus Kit (Invitrogen) as follows. 3 μg of the linear envelope expression vector and 3 μg of pTET-OFF were mixed with 750 μl of D-MEM media. 49 μl of Plus Reagent was added to the DNA mixture, the solution was mixed. After 15 minutes at room temperature a solution consisting of 750 μl D-MEM and 30 μl of lipofectamine was added to the DNA solution. The solution was mixed and incubated at room temperature for 15 minutes. The media from 1.7×10^6 Hela H1 cells ion a T75 flask was removed, the cells were washed with 15 ml of D-PBS, and 6 ml of D-MEM without serum was added to the cells. The DNA/lipofectamine solution was mixed, added to the cells and the cells were then incubated at 37° C. in the presence of 5% CO2. After 4 hours, the transfection mixture was removed and replaced with 15 ml of D-MEM 10% FBS and incubated overnight at 37° C. in the presence of 5% CO2.
(§4) Preparation of Target Cells Hela H1 cells expressing CD4, CXCR4, CCR5, and containing an integrated copy of a TRE/luciferase reporter gene were used as target cells. These cells were maintained in DMEM containing 10% FBS, 0.2 mg/ml G418, 0.4 mg/ml zeocin, 0.1 mg/ml hygromycin B, and 1.5 μg/ml puromycin. […]

[5] = system: HIV envelope BRH04821; test: TOPO cell mediated fusion assay, clinical envelope BRH04821; assay type: cell-based; settings: clinical envelope BRH04821, source serum; read-out: BMS-806 EC50 TOPO Fusion
Procedure: as §3, §4

[6] = system: HIV envelope 92US072; test: TOPO cell mediated fusion assay, clinical envelope 92US072; assay type: cell-based; settings: clinical envelope 92US072, source PBMC; read-out: BMS-806 EC50 TOPO Fusion
Procedure: as §3, §4

[7] = system: HIV envelope 93US157; test: TOPO cell mediated fusion assay, clinical envelope 93US157; assay type: cell-based; settings: clinical envelope 93US157, source PBMC; read-out: BMS-806 EC50 TOPO Fusion
Procedure: as §3, §4

[8] = system: HIV BRH04820 whole virus; test: Whole virus assay, BRH04820; assay type: cell-based; settings: BRH04820, source serum; read-out: BMS-806 EC50 Whole Virus
[9] = system: HIV BRH04821 whole virus; test: Whole virus assay, BRH04821; assay type: cell-based; settings: BRH04821, source serum; read-out: BMS-806 EC50 Whole Virus
[10] = system: HIV 92US072 whole virus; test: Whole virus assay, 92US072; assay type: cell-based; settings: 92US072, source PBMC; read-out: BMS-806 EC50 Whole Virus
[11] = system: HIV 93US157 whole virus; test: Whole virus assay, 93US157; assay type: cell-based; settings: 93US157, source PBMC; read-out: BMS-806 EC50 Whole Virus
[12] = target: HIV LAI envelope (Human immunodeficiency virus type 1 group M subtype B, UniProt P03377); settings: read-out: BMS-806 EC50 TOPO Cell Fusion, linear envelope expression element, Hela H1 effector and target cells, luciferase
Procedure: as §1, §2

COc1ccnc2[nH]cc(C(=O)C(=O)N3CCN(C(=O)c4ccccc4)C[C@H]3C)c12 [BMS-806]
EC50 [1]: 5.7 nM
EC50 [2]: 2.1 nM
EC50 [3]: 2.5 nM
EC50 [4]: 5.5 nM
EC50 [5]: 2.7 nM
EC50 [6]: 818 nM
EC50 [7]: 2.3 nM
EC50 [8]: 5.5 nM
EC50 [9]: 5.3 nM
EC50 [10]: 336 nM
EC50 [11]: 3.9 nM
EC50 [12]: 3.5 nM

From patent publication US20040106104A1, “Viral envelope mediated fusion assay” (priority 2002, published 2004)
